Measurements from PubChem BioAssay AID651630 (Sanford-Burnham Center for Chemical Genomics, 2012).
Calls of active or inactive are those of the source.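 How the source made its calls: active means lipid-stain IC50 at or below a set limit, with nuclear-stain toxicity IC50 at least five times higher; inactive means the rest.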

Legend:
DAPI = test: triacylglycerol accumulation inhibitor potency, dose response, cell-based, panel, Nile Red and DAPI fluorescence, H9c2 (AID 651630); conditions: H9c2 cells, DAPI nuclear fluorescence (cytotoxicity counter-readout), oleic acid;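 further: cells exposed to compound overnight before fixation and staining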
TAG = test: as above; conditions: H9c2 cells, Nile Red TAG fluorescence, oleic acid

SMILES	IC50 cytotoxicity (DAPI nuclear signal decrease) (DAPI; mean of runs)	IC50 cytotoxicity (DAPI nuclear signal decrease) (DAPI; run 1) [µM]	IC50 cytotoxicity (DAPI nuclear signal decrease) (DAPI; run 2) [µM]	IC50 (TAG; mean of runs)	IC50 (TAG; run 1) [µM]	IC50 (TAG; run 2) [µM]
COc1ccc(NS(=O)(=O)c2cc(C)ccc2NC(=O)c2cc(C)oc2C)cc1	> 25 µM (inactive)	> 25	> 25	8.59 µM	9.83	7.35
COc1cccc(/C=C/C(=C2/C(=O)N(c3ccccc3)N=C2C)c2ccc(C)cc2)c1OC	–	> 25	> 25	1.63 µM	1.64	1.61
Cc1ccc(N2C(=O)C3CC(c4ccccc4)=C4C5C=CC(C6C(=O)N(c7ccc(C)cc7C)C(=O)C56)C4C3C2=O)c(C)c1 (stereo not given)	> 25 µM (inactive)	> 25	> 25	–	22.3	> 25
COc1cc(C(CCN2CCCC(C)C2)c2c(OC)cc(OC)c3c(-c4ccccc4)cc(=O)oc23)cc(OC)c1OC (stereo not given)	> 25 µM (inactive)	> 25	> 25	14.1 µM	14.8	13.5
c1ccc(N(c2ccccc2)c2nc(N3CCCC3)nc(-n3ccnc3)n2)cc1	> 25 µM (inactive)	> 25	> 25	17.7 µM (inactive)	19.1	16.3
COc1cc(CC(=O)OCC(=O)c2ccc3c(c2)OCCO3)cc(OC)c1OC	–	2.3	> 25	–	17.1	> 25
CC(C)C[C@@H](CNC(=O)OC(C)(C)C)NC(=O)c1nc[nH]c1C(=O)N[C@@H](CC(C)C)C(=O)CNC[C@H](CC(C)C)NC(=O)c1nc[nH]c1C(=O)N[C@@H](Cc1c[nH]c2ccccc12)C(=O)OC(C)(C)C	> 25 µM (inactive)	> 25	> 25	5.5 µM	4.49	6.51
CC(=O)O[C@H]1C(=O)[C@]2(C)[C@H]([C@H](OC(=O)c3ccccc3)[C@]3(O)C[C@H](OC(=O)[C@H](O)[C@@H](NC(=O)c4ccccc4)c4ccccc4)C(C)=C1C3(C)C)[C@]1(OC(C)=O)CO[C@@H]1C[C@@H]2O	> 25 µM (inactive)	> 25	> 25	> 25 µM (inactive)	> 25	> 25
COc1ccc2nc3cc([N+](=O)[O-])ccc3c(NNc3ccc([N+](=O)[O-])cc3)c2c1	> 25 µM (inactive)	> 25	> 25	5.93 µM	10.4	1.44
CCCCCC(=O)Nc1nc(C)c(-c2csc(Nc3cc(OC)ccc3OC)n2)s1	> 25 µM (inactive)	> 25	> 25	14.6 µM	13.3	15.8
COC(=O)C1=C(C)N(Cc2ccccc2)C(=NCc2cc(OC)c(OC)c(OC)c2)N[C@H]1c1ccc(Br)cc1	> 25 µM (inactive)	> 25	> 25	> 25 µM (inactive)	> 25	> 25
C[C@@H]1CN([C@H](C)CO)C(=O)c2c(c3ccccc3n2C)-c2ccccc2CO[C@H]1CN(C)Cc1ccc(-c2ccccc2)cc1	> 25 µM (inactive)	> 25	> 25	14.9 µM	9.62	20.1
O=C(CSc1nc2ccc(Nc3nc(N4CCOCC4)nc(N4CCOCC4)n3)cc2s1)Nc1ccccc1F	> 25 µM (inactive)	> 25	> 25	12.9 µM	12.6	13.2
Cc1ccc(-n2cc(CNCCCn3cccn3)c(-c3cccc(C)c3)n2)cc1	> 25 µM (inactive)	> 25	> 25	> 25 µM (inactive)	> 25	> 25
COCCCn1c(N)c(C(=O)Nc2ccccc2)c2nc3ccccc3nc21	> 25 µM (inactive)	> 25	> 25	13.5 µM	11.8	15.2
O=C(CCl)Nc1cc2[nH]c(=O)[nH]c2cc1Br	15 µM (inactive)	11.7	18.3	9.37 µM	5.97	12.8

SMILES	IC50 cytotoxicity (DAPI nuclear signal decrease) (DAPI; mean of runs)	IC50 cytotoxicity (DAPI nuclear signal decrease) (DAPI; run 1) [µM]	IC50 cytotoxicity (DAPI nuclear signal decrease) (DAPI; run 2) [µM]	IC50 (TAG; mean of runs)	IC50 (TAG; run 1) [µM]	IC50 (TAG; run 2) [µM]
c1ccc(-c2nc(SCc3nc4ccccc4[nH]3)c3oc4ccccc4c3n2)cc1	> 25 µM (inactive)	> 25	> 25	10.5 µM	10	11
c1ccc(OCCNc2nc(NCC3CC3)nc3cc(-c4ccccc4)sc23)cc1	> 25 µM (inactive)	> 25	> 25	12.8 µM	12.7	12.9
CC(C)C[C@@H](CN1CCCC1CN1C(=S)NC[C@@H]1Cc1ccc(O)cc1)N1C[C@H](Cc2ccccc2)N(CC2CCCCC2)C1=S (stereo not given in full)	21.8 µM (inactive)	21.7	21.8	> 25 µM (inactive)	> 25	> 25
CC(C)C[C@H](CO)N(Cc1ccccc1)S(=O)(=O)N(Cc1ccccc1)[C@@H](CO)CC(C)C	> 25 µM (inactive)	> 25	> 25	–	9.64	> 25
COc1cccc(N=Nc2c(O)[nH]c(=S)[nH]c2=O)c1	–	6.31	> 25	> 25 µM (inactive)	> 25	> 25
COc1ccc(OC)c(C2CC(c3ccccc3)=NN2C(=S)Nc2ccccc2)c1 (stereo not given)	> 25 µM (inactive)	> 25	> 25	> 25 µM (inactive)	> 25	> 25
COC(=O)C1=C(c2ccc(OCc3ccccc3)cc2)C[C@@H]2CC[C@H]1N2C(=O)NCc1ccc(C(C)(C)C)cc1	> 25 µM (inactive)	> 25	> 25	16.7 µM (inactive)	14.2	19.1
CC(=O)OCC(=O)[C@@]12OC3(CCCC3)O[C@@H]1C[C@H]1[C@@H]3CCC4=CC(=O)C=C[C@]4(C)[C@@]3(F)[C@@H](O)C[C@@]12C	–	> 25	> 25	2.83 µM	2.71	2.95
COc1ccc(-c2sc3cc4c(cc3c2C#Cc2ccc(N)cc2)OCO4)cc1	> 25 µM (inactive)	> 25	> 25	> 25 µM (inactive)	> 25	> 25
c1cc(C2CCCCC2)ccc1Oc1nc(N2CCOCC2)nc(N2CCOCC2)n1	> 25 µM (inactive)	> 25	> 25	> 25 µM (inactive)	> 25	> 25
CCC1=Nc2cc(C(=O)NCCCOC)ccc2Sc2ccccc21	> 25 µM (inactive)	> 25	> 25	> 25 µM (inactive)	> 25	> 25
CCOc1ccc2nc(-c3ccccc3)nc(SCC(=O)Nc3ncc(C)s3)c2c1	> 25 µM (inactive)	> 25	> 25	> 25 µM (inactive)	> 25	> 25
CC(C)Cc1nc2sc3c(NCc4ccco4)ncnc3c2c2c1COC(C)(C)C2	> 25 µM (inactive)	> 25	> 25	> 25 µM (inactive)	> 25	> 25
Cn1nnnc1Sc1ncnc2scc(-c3cccc(S(C)(=O)=O)c3)c12	> 25 µM (inactive)	> 25	> 25	> 25 µM (inactive)	> 25	> 25
O=C(Nc1ccc(/C=C/c2nc3ccccc3o2)cc1)c1c(F)cccc1F	> 25 µM (inactive)	> 25	> 25	10.5 µM	13.2	7.82
C=CCN1C(=O)/C(=C2\SC(N3CCOCC3)=NC2=O)c2cc(Br)ccc21	> 25 µM (inactive)	> 25	> 25	22.4 µM (inactive)	22.5	22.4
